From patent publication EP4238553A1, “COMPOSITIONS AND METHODS FOR DELIVERING CLOFOCTOL” (priority 2022, dated 2023)
Values after ≈ are worked out from the molar mass of the structure shown.

What was measured:
[1] = physchem; assay type: physicochemical; conditions: for solubility at 48 h / solubility at 120 h: organic solvent or mixture
Description: Solutions of clofoctol were prepared in different solvents: 100% PG, 85/15 PG/Gly, 70/30 PG/Gly, 50/50 PG/Gly. Solutions were sonicated then incubated at 65°C for 30 min, until complete dissolution of clofoctol. Then, the samples were incubated at RT under stirring for different times. For collection before analysis after determined incubation times, the solutions were centrifuged, then the supernatants were collected and diluted before LC-MS/MS analysis for clofoctol quantitation in samples.

[2] = aerosol drug mass density (TAG aerosol trapped on filter, LC-MS); assay type: physicochemical; conditions: airflow 34 L per minute; for Collected mass of clofoctol in the trap: 1.416 L aerosol trapped
Description: The term "aerosol" refers to a suspension of fine solid particles or liquid droplets in a gas. The expression "(aerosol) drug mass density" refers to the mass of clofoctol per unit volume of aerosol. It is calculated by measuring the quantity of clofoctol in a determined volume of aerosol beforehand trapped.
(§1) The purity of a clofoctol-containing aerosol, and quantitation of clofoctol in this aerosol was determined using a method that involves forming the aerosol in a device through which an air flow is maintained, generally at a rate between 1 and 180 L/min. The gas flow carries the aerosol into one or more traps. After extraction from the trap, the trapped components from the aerosol are subjected to an analytical technique, such as liquid chromatography, that permits a determination of composition and purity. The liquid chromatography discussed above contains a detection system (i.e., detector). Such detection systems are well known in the art and include, for example, UV detectors and mass spectrometry detectors. Liquid chromatography-mass spectrometry is the preferred analytical technique.
Solutions containing 20 mg/g of clofoctol in various solvents were prepared. Aerosols were produced using a TAG (Vaporesso swag 2 with a coil resistance of 0.3 ohms) at different powers and an airflow of 34 L per minute. 1.416 L of emitted aerosol was trapped on a plastic filter. Clofoctol was then extracted from the filter and dosed by LC-MS to determine the drug mass density.

[3] = characterization of aerosol particles by laser light scattering (Malvern Mastersizer X); assay type: physicochemical; conditions: air flow 20L/min
Description: The "median diameter" (D(v;0.5)) of an aerosol refers to the diameter for which half the particulate mass of the aerosol consists of particles with a diameter larger than the median diameter and half by particles with a diameter smaller than the median diameter. The median diameter is measured by laser light scattering using for example a Malvern Mastersizer X or any equivalent apparatus working on the same principle of laser light scattering.
The "span" of a volume-based size distribution is defined by Span = (D(v;0.9) - D(v;0.1)) / D(v;0.5) and gives an indication of how far the 10 percent and 90 percent points are apart, normalized by the midpoint.
The "volume concentration" is the volume of particles reported to the total volume of the aerosol expressed as a percentage. The volume concentration is measured by laser light scattering using for example a Malvern Mastersizer X or any equivalent apparatus working on the same principle of laser light scattering.
Solutions containing 10 mg/g or 20 mg/g of clofoctol in various solvents were prepared. Aerosols were produced using a TAG (Vaporesso swag 2 with a coil resistance of 0.3 ohms) at different powers. The flow of aerosol was generated using an air flow of 20L/min. A certain volume of emitted aerosol was passed through the laser beam of a granulometer, Mastersizer X from Malvern.

[4] = clofoctol purity in the aerosol after thermal aerosol generation (LC-UV-MS); assay type: physicochemical; conditions: for Mean purity: mean of puffs 1 and 2
Description: as §1
Solutions containing 20 mg/g of clofoctol in various solvents were prepared. Aerosols were produced using a TAG (Vaporesso swag 2 with a coil resistance of 0.3 ohms) at different powers. The flow of aerosol was generated using an air flow of 20 L/min. One or two successive puffs of 2.5s each was (were) done for each condition. For each puff, a certain volume of emitted aerosol was trapped on a plastic filter. Clofoctol was then extracted from the filter and analysed by LC-UV-MS.

[5] = in vivo; design: species or system Mice; conditions: mouse, inhaled or intranasal
Description: Mice (Charles River, Female CD-1, 20-23 g) were permitted water and food ad libitum during the experiment. Clofoctol was administrated by Nose-Only inhalation in a homemade inhalation chamber in part inspired by a previous described apparatus (ref. 6). Animals were acclimated to restraint during a week before the experiment started. Animals were exposed to an aerosol generated (using a TAG connected to the chamber: Vaporesso swag 2 with a coil resistance of 0.3 ohms) from a solution of 20 mg/g of clofoctol ([…]/Glycerin, 85/15) for a period of 15 min with a puff of 4.5 s every minute (with a power of 30W).
Blood and lungs (left lung) were sampled 5, 10, 15, 30, 60 and 120 minutes after the end of a single inhalation period (2 mice/sampling time). The blood was sampled in tubes with Lithium Heparin on ice and then the plasma was separated from the red cells by centrifugation and frozen (-80°C).
A known mass (approximately 15mg, weighed beforehand) of each lung was placed into a 'safe lock' microtube (2 mL). […]
The unknown lung concentrations of clofoctol were calculated from a calibration line produced in the same matrix (naive lung from 'vehicle' animals) and reprocessed in the same way as the samples (homogenization in ethanol).

[6] = 20 mg/g clofoctol in 70/30 PG/Gly, TAG power 30 W
[7] = 20 mg/g clofoctol in 85/15 PG/Gly, TAG power 30 W
[8] = 20 mg/g clofoctol in 85/15 PG/Gly, TAG power 50 W
[9] = 20 mg/g clofoctol in 85/15 PG/Gly, TAG power 80 W
[10] = 20 mg/g clofoctol in 100% PG, TAG power 30 W
[11] = aerosol from 10 mg/g CFT in 85/15 PG/Gly, power 30 W
[12] = aerosol from 10 mg/g CFT in 85/15 PG/Gly, power 45 W
[13] = aerosol from 10 mg/g CFT in 85/15 PG/Gly, power 60 W
[14] = aerosol from 20 mg/g CFT in 70/30 PG/Gly, power 30 W
[15] = aerosol from 20 mg/g CFT in 85/15 PG/Gly, power 30 W
[16] = aerosol from 20 mg/g CFT in 100% PG, power 30 W

solubility at 48 h ([1]; 50/50 pg/gly): 7.9 mM (≈ 2.89 mg/mL) | solubility at 120 h ([1]; 50/50 pg/gly): 6.7 mM (≈ 2.45 mg/mL) | solubility at 48 h ([1]; 70/30 pg/gly): 29.8 mM (≈ 10.9 mg/mL) | solubility at 120 h ([1]; 70/30 pg/gly): 28.1 mM (≈ 10.3 mg/mL) | solubility at 48 h ([1]; 85/15 pg/gly): 504 mM (≈ 184 mg/mL) | solubility at 120 h ([1]; 85/15 pg/gly): 147 mM (≈ 53.6 mg/mL) | solubility at 48 h ([1]; 100% pg): 489 mM (≈ 179 mg/mL) | solubility at 120 h ([1]; 100% pg): 441 mM (≈ 161 mg/mL) | maximum concentration achieved ([1]; 7200 min): about 15 % by weight | Drug mass density [2, 6]: 0.091 mg/L | Collected mass of clofoctol in the trap [2, 6]: 128.3 µg | Drug mass density [2, 7]: 0.096 mg/L | Collected mass of clofoctol in the trap [2, 7]: 135.8 µg | Drug mass density [2, 8]: 0.099 mg/L | Collected mass of clofoctol in the trap [2, 8]: 141.1 µg | Drug mass density [2, 9]: 0.071 mg/L | Collected mass of clofoctol in the trap [2, 9]: 100.5 µg | Drug mass density [2, 10]: 0.159 mg/L | Collected mass of clofoctol in the trap [2, 10]: 225.6 µg | Mean diameter [3, 11]: 2.45 µm | Median diameter [3, 11]: 2.42 µm | Sauter diameter [3, 11]: 2.34 µm | Span [3, 11]: 0.519 | Volume conc. [3, 11]: 0.0052% | Mean diameter [3, 12]: 2.40 µm | Median diameter [3, 12]: 2.38 µm | Sauter diameter [3, 12]: 2.30 µm | Span [3, 12]: 0.523 | Volume conc. [3, 12]: 0.0027% | Mean diameter [3, 13]: 2.63 µm | Median diameter [3, 13]: 2.59 µm | Sauter diameter [3, 13]: 2.46 µm | Span [3, 13]: 0.635 | Volume conc. [3, 13]: 0.0018% | Mean diameter [3, 14]: 2.89 µm | Median diameter [3, 14]: 2.87 µm | Sauter diameter [3, 14]: 2.76 µm | Span [3, 14]: 0.551 | Volume conc. [3, 14]: 0.0020% | Mean diameter [3, 15]: 2.41 µm | Median diameter [3, 15]: 2.38 µm | Sauter diameter [3, 15]: 2.30 µm | Span [3, 15]: 0.543 | Volume conc. [3, 15]: 0.0016% | Mean diameter [3, 16]: 2.78 µm | Median diameter [3, 16]: 2.75 µm | Sauter diameter [3, 16]: 2.66 µm | Span [3, 16]: 0.521 | Volume conc. [3, 16]: 0.0038% | Mean purity ([4]; aerosol from 20 mg/g clofoctol in 70/30 PG/Gly, power 30 W): 100.0% | Purity CFT ([4]; aerosol from 20 mg/g clofoctol in 70/30 PG/Gly, power 30 W, puff number 1): 100.0% | Purity CFT ([4]; aerosol from 20 mg/g clofoctol in 70/30 PG/Gly, power 30 W, puff number 2): 100.0% | Mean purity ([4]; aerosol from 20 mg/g clofoctol in 70/30 PG/Gly, power 80 W): 91.0% | Purity CFT ([4]; aerosol from 20 mg/g clofoctol in 70/30 PG/Gly, power 80 W, puff number 1): 91.4% | Purity CFT ([4]; aerosol from 20 mg/g clofoctol in 70/30 PG/Gly, power 80 W, puff number 2): 90.6% | Mean purity ([4]; aerosol from 20 mg/g clofoctol in 100% PG, power 30 W): 100.0% | Purity CFT ([4]; aerosol from 20 mg/g clofoctol in 100% PG, power 30 W, puff number 1): 100.0% | Purity CFT ([4]; aerosol from 20 mg/g clofoctol in 100% PG, power 30 W, puff number 2): 100.0% | Mean purity ([4]; aerosol from 20 mg/g clofoctol in 100% PG, power 80 W): 87.4% | Purity CFT ([4]; aerosol from 20 mg/g clofoctol in 100% PG, power 80 W, puff number 1): 92.0% | Purity CFT ([4]; aerosol from 20 mg/g clofoctol in 100% PG, power 80 W, puff number 2): 82.7% | Tmax [5]: ≤ 5 min
Compound: CC(C)(C)CC(C)(C)c1ccc(O)c(Cc2ccc(Cl)cc2Cl)c1 [clofoctol, 2-[(2,4-dichlorophenyl)methyl]-4-(2,4,4-trimethylpentan-2-yl)phenol]
